Legend:
[1] = tested on: amphetamine-induced hyperactivity in the rat; test: Amphetamine challenge: d-amphetamine induced hyperactivity in rats; format: in vivo; details: test substance s.c. 30 min before d-amphetamine sulphate 0.5 mg/kg, motility 2 hours, read-out: Amphetamine antagonism ED50 ± std. dev.
Description: D-amphetamine administration to rodents stimulates an increase in locomotor activity via mesolimbic dopamine receptors in the nucleus accumbens. While psychostimulant psychosis may not model all forms of schizophrenia, it may have applicability to paranoid schizophrenia and non-schizophrenic psychotic disorders (Krystal et al. pp. 214-224 in Neurobiology of Mental Illness ISBN 0-19-511265-2). It is believed that inhibition of the amphetamine-induced increase in locomotor activity is a reliable method for the evaluation of compounds with an antipsychotic potential (Ögren et al., European J. Pharmacol. 1984, 102, 459-464). In the following experiment, it was tested if the inhibition of spontaneous DA neurons in the mesolimbic circuit that was assessed above, could be translated into behavioral antipsychotic endpoint.
Subjects. Male Wistar rats (Taconic, Denmark) weighing 170-240 g are used. The animals were housed under a 12-hr light/dark cycle under controlled conditions for regular in-door temperature (21±2° C.) and humidity (55±5%) with food and tap water available ad libitum. Eight rats were used at each dose level and in the parallel control group receiving the vehicle to the test compound plus d-amphetamine and the group receiving vehicle injections only.

[2] = tested on: sensitised behavioural response to amphetamine in mice; test: Amphetamine sensitisation: sensitised behavioural response to amphetamine in mice; format: in vivo, mouse; details: amphetamine-pretreated mice, compound s.c. 30 min before D-amphetamine challenge 1.25 mg/kg s.c., 30 min test; for ED50: Mus musculus, read-out: Inhibition of amphetamine sensitised response. ED50 (±S.D.)
Method: Inhibition of the behavioral response to an acute amphetamine challenge in sensitised animals is proposed as a model for evaluating the antipsychotic or antimanic potential of compounds.
Subjects. Male NMRI mice (Charles River) weighing approx. 35 g are used. The animals were housed 6 mice pr cage in a 12-hr light/dark cycle under controlled conditions for regular in-door temperature (21±2° C.) and humidity (55±5%) with food and tap water available ad libitum. 12 mice are used pr experimental group.
Administration of compounds.

[3] = tested on: DA levels in the nucleus accumbens; test: Microdialysis: DA levels in the nucleus accumbens of freely moving rats; format: in vivo, rat; details: 5 mg/kg s.c., freely moving rats
Description: It is well-known that psychostimulants increase locomotor activity via an increase in extracellular DA levels in the nucleus accumbens, which is the terminal area of the mesolimbic DA projections (Guix et al., 1992, Neurosci. Lett., 138(1), 137-140; Moghaddam et al., 1989, Synapse, 4(2), 156-161). It is also known, that the antagonistic effect of antipsychotics on stimulant-induced hyperlocomotion is related to the effect of antipsychotics to inhibit the stimulated DA levels in the nucleus accumbens (Broderick et al., 2004, Prog. Neuropsychopharmacology and Biol. Psych., 28, 157-171). Thus, the nucleus accumbens is an accepted neuroanatomical site for testing reversal of positive symptoms of psychosis. […] The experiments were conducted such that the data may be associated with the behavioural data obtained above.
Subjects. Male Sprague-Dawley rats (Charles River), initially weighing 275-300 g, were used. The animals were housed under a 12-hr light/dark cycle under controlled conditions for regular in-door temperature (21±2° C.) and humidity (55±5%) with food and tap water available ad libitum.
Surgery. Animals were anaesthetized with hypnorm/dormicum (2 ml/kg s.c.) and intracerebral guide cannulas (CMA/12) were stereotaxically implanted, positioning the dialysis probe tip in the nucleus accumbens (co-ordinates: […] anterior to bregma, —1.2 mm lateral to bregma, 8.0 mm ventral to the dura). Anchor screws and acrylic cement was applied for fixation of the guide cannula. The body temperature of the animals was maintained at 37° C. by means of a rectal probe and a heating plate. The rats were allowed to recover from surgery for 2 days, housed singly in cages.
Experimental procedure. On the day of the experiment, a microdialysis probe (CMA/12, 0.5 mm diameter, 2 mm length) was inserted through the guide cannula of the conscious animal. The probes were connected to a microinjection pump via a dual channel swivel which allowed the animals unrestricted movements. Perfusion of the microdialysis probe with filtered Ringer solution (145 mM NaCl, 3 mM KCl, 1 mM MgCl2, 1.2 mM CaCl2) was maintained for the duration of the experiment at a constant flow rate of 1 μL/min. After 180 min of stabilisation, the experiments were initiated. Dialysates were collected every 20 min. After the experiments the rats were sacrificed by decapitation, their brains removed, frozen and sliced for probe placement verification.
Administration of compounds. […] Thirty min after the first administration dex-amphetamine sulphate (0.5 mg/kg s.c.) was administered.
Analysis of dialysate. The concentration of dopamine (DA) in the dialysates was assessed by means of HPLC with electrochemical detection. The dialysate constitutents were separated by reverse phase liquid chromatography (ODS 150×3 mm, […]). Mobile phase consisted of 90 mM NaH2PO4, 50 mM sodium citrate, 367 mg/l sodium 1-octanesulfonic acid, 50 μM EDTA and 8% acetonitrile (pH 4.0) at a flow rate of 0.5 ml/min. Electrochemical detection of DA was accomplished using a coulometric detector; potential set at E1=−75 mV and E2=300 mV (guard cell at 350 mV) (Coulochem II, ESA). The dialysate levels of DA in the three dialyse samples preceding the administration of compound were averaged and used as baseline level of DA (100%)

[4] = tested on: DA levels in the nucleus accumbens; test: as above; format: in vivo, rat; details: no amphetamine provocation, data not shown
[5] = Motility inhibition (sedative properties) without d-amphetamine, rat; details: Wistar, in vivo, sc
[6] = Inhibition of baseline motility in vehicle-pretreated, vehicle-challenged mice; details: NMRI, mouse, in vivo
[7] = tested on: conditioned avoidance response in rats; test: Conditioned avoidance response in rats; format: in vivo, rat; details: for % inhibition of avoidance. Relative to baseline.: rats; for Escape failures (effect on motor performance): rat, in vivo
Description: In the conditioned avoidance response (CAR) model, rats are trained to respond to a stimulus within a fixed time by moving from one place to another in order to avoid a footshock. Antipsychotics selectively suppress the avoidance response within a certain dose-range without suppressing escape behavior elicited by the appearance of the footshock. The CAR model is considered to be a predictive and reliable animal model that is sensitive to compounds with an antipsychotic potential.
Subjects. Male Wistar rats (Taconic, Denmark) weighing 150 g at the beginning of the study are used. The rats are housed ii pairs and maintained on a 12 h light/dark cycle (lights on 06:00). The animals are fed once daily (approx. 6 pellets/rat) in order to keep the rats at 80% of their free-feeding weight. Water is available ad libitum. Temperature (21±1° C.) and relative humidity (55±5%) are automatically controlled.
Experimental procedure. Conditioned avoidance testing is conducted using four automated shuttle-boxes (ENV-010M, MED-Associates) each placed in a sound-attenuated chamber. Each box is divided into two compartments by a partition with an opening. The position of the animal and crossings from one compartment to the other are detected by two photocells placed on either side of the dividing wall. Upon presentation of the conditioned stimuli (CS), tone and light, the animals have 10 s to cross to the other compartment of the shuttle-box in order to turn the CS off (end the trial) and avoid the appearance of the unconditioned stimulus (UCS). If the rat remains in the same compartment for more than 10 s, the UCS is presented as 0.5 mA scrambled foot-shocks until escape is performed or 10 s in maximal duration. The following behavioural variables are evaluated: avoidance (response to CS within 10 s); escape (response to CS+UCS); escape failures (failure to respond); intertrial crosses and locomotor activity. The rats are habituated to the shuttle-box 3 min before each test session. During training each test session consists of 30 trials with intertrial intervals varying randomly between 20 s and 30 s. Training is carried until the rats display an avoidance of 80% or more, on 3 consecutive days. A test is preceded by a pre-test the day before giving rise to a baseline value for each animal, thus the animals serve as their own control. Seven to eight rats are used at each dose level. A parallel control group receiving the vehicle of the test compound is also included.
Administration of compound.
Statistical analyses. The effects of compounds on avoidance and escape failure behaviours were statistically evaluated by means of a two-way repeated measures ANOVA followed by post hoc comparisons (Student-Newman-Keuls Method) when appropriate. P-levels <0.05 were considered statistically significant.

in vivo = details: Wistar, rat, sc
[8] = tested on: baseline motility in mice; test: Inhibition of baseline motility in vehicle-pretreated, vehicle-challenged mice; details: vehicle-pretreated, vehicle-challenged mice, compound s.c.
[9] = tested on: immobility in the mouse forced swim test; test: Mouse forced swim test; format: in vivo; details: 30 min before the test, mice, last 3 min of 6 min swim, vehicle = 100
[10] = 2.5 mg/kg s.c. 30 min before the test
[11] = 5 mg/kg s.c. 30 min before the test

Question: Which ED50 [1] does the source give for `Cc1cc(N2CCOCC2)cc(C)c1NC(=O)CC1CCCC1` here?
Answer: Its ED50 is 2.6 mg/kg.

Question: What about the ED50 [2] of the same molecule?
Answer: The ED50 was 1.2 mg/kg.

Question: What about the “DA level in the nucleus accumbens, amphetamine + compound” value (“DA level … amphetamine + compound” for short) ([3]; time 0 min) of the same molecule?
Answer: The value was 99 ± 4 % of baseline.

Question: What about the “DA level … amphetamine + compound” value ([3]; time −40 min) of the same molecule?
Answer: The value was 95 ± 6 % of baseline.

Question: What about the “Effect on basal extracellular DA level in the nucleus accumbens” value [4] of the same molecule?
Answer: The value was “merely provoked levels of DA were affected, but not basal levels of DA”.

Question: And the ED50 at 2 h [5]?
Answer: The ED50 at 2 h was 5.3 mg/kg.

Question: What about the ED50 at 30 min ([6]; subcutaneous) of the same molecule?
Answer: Its ED50 at 30 min is 2.2 mg/kg.

Question: What about the “% inhibition of avoidance. Relative to baseline.” value [7, 10] of the same molecule?
Answer: Its value is 5%.

Question: And the “% inhibition of avoidance. Relative to baseline.” value [7, 11]?
Answer: Its value is 65%.

Question: And the “Escape failures (effect on motor performance)” value [7]?
Answer: Its value is “None of the tested doses caused any incidences of escape failures”.

Question: Which ED50 [1] does the source give for `Cc1cc(N2CCOCC2)cc(C)c1NC(=O)CC(C)(C)C` here?
Answer: Its ED50 is 2.1 mg/kg.

Question: What about the ED50 [2] of the same molecule?
Answer: Its ED50 is 1.6 mg/kg.

Question: And the “DA level … amphetamine + compound” value ([3]; time 0 min)?
Answer: Its value is 91 ± 4 % of baseline.

Question: What about the “DA level … amphetamine + compound” value ([3]; time −20 min) of the same molecule?
Answer: The value was 100 ± 3 % of baseline.

Question: And the “Effect on basal extracellular DA level in the nucleus accumbens” value [4]?
Answer: Its value is “merely provoked levels of DA were affected, but not basal levels of DA”.

Question: And the ED50 at 2 h [5]?
Answer: Its ED50 at 2 h is 7.6 mg/kg.

Question: What about the ED50 at 30 min ([6]; subcutaneous) of the same molecule?
Answer: Its ED50 at 30 min is over 2.5 mg/kg.

Question: What about the “% inhibition of avoidance. Relative to baseline.” value [7, 10] of the same molecule?
Answer: The value was 1%.

Question: And the “% inhibition of avoidance. Relative to baseline.” value [7, 11]?
Answer: The value was 71%.

Question: And the “Escape failures (effect on motor performance)” value [7]?
Answer: The value was “None of the tested doses caused any incidences of escape failures”.

Question: What does the source list for `COc1cc(N2CCOCC2)cc(C)c1NC(=O)CC1CCCC1` [2-Cyclopentyl-N-(2-methoxy-6-methyl-4-morpholin-4-yl-phenyl)-acetamide]?
Answer: ED50 [2]: 1.7 mg/kg; ED50 at 30 min ([6]; subcutaneous): 3 mg/kg

Question: Which ED50 [2] does the source give for `Cc1nc(N2CCOCC2)nc(C)c1NC(=O)CC1CCCC1` [2-Cyclopentyl-N-(4,6-dimethyl-2-morpholin-4-yl-pyrimidin-5-yl)-acetamide] here?
Answer: Its ED50 is 0.9 mg/kg.

Question: And the ED50 at 30 min ([6]; subcutaneous)?
Answer: The ED50 at 30 min was 2.5 mg/kg.

Question: What does the source list for `CCCCCC(=O)Nc1c(F)cc(N2CCOCC2)cc1F` [Hexanoic acid (2,6-difluoro-4-morpholin-4-yl-phenyl)-amide]?
Answer: ED50 [2]: 2.4 mg/kg; ED50 at 30 min ([6]; subcutaneous): > 5 mg/kg

Question: For `[Li]` [Lithium-chloride], which ED50 [1] is on record?
Answer: The ED50 was 12 mg/kg.

Question: What about the ED50 at 2 h (in vivo) of the same molecule?
Answer: The ED50 at 2 h was over 40 mg/kg.

Question: What does the source list for `Cc1cc(N2CCOCC2)nc(C)c1NC(=O)CC(C)(C)C` [N-(2,4-Dimethyl-6-morpholin-4-yl-pyridin-3-yl)-3,3-dimethyl-butyramide]?
Answer: ED50 [2]: 1.4 mg/kg; ED50 at 30 min ([6]; subcutaneous): 3.1 mg/kg

Question: With `CCC(=O)Nc1c(Br)cc(N2CCOCC2)cc1C(F)(F)F` [N-(2-Bromo-4-morpholin-4-yl-6-trifluoromethyl-phenyl)-propionamide] as the molecule, how does the ED50 [2] read?
Answer: The ED50 was 3.1 mg/kg.

Question: And the ED50 at 30 min ([6]; subcutaneous)?
Answer: The ED50 at 30 min was 6 mg/kg.

Question: For `Cc1nc(N2CCOCC2)nc(C)c1NC(=O)Cc1ccc(F)cc1` [N-(4,6-Dimethyl-2-morpholin-4-yl-pyrimidin-5-yl)-2-(4-fluoro-henyl)-acetamide], which “Inhibition of amphetamine sensitised response. ED50 (±S.D.)” value [2] is on record?
Answer: The value was 0.4 mg/kg.

Question: And the “Inhibition of baseline motility. ED50 (±S.D.)” value [8]?
Answer: Its value is 2.2 mg/kg.

Question: Which results are given for `Cc1cc2c(s1)Nc1ccccc1N=C2N1CCN(C)CC1` [Olanzapine]?
Answer: Immobility in % ([9]; dose 0.31 mg/kg): 96%; Immobility in % ([9]; dose 1.3 mg/kg): 95%; ED50 [1]: 0.21 mg/kg

Question: With `CCOC(=O)Nc1ccc(NCc2c(C)cc(C)cc2C)cc1N` [[2-Amino-4-(2,4,6-trimethyl-benzylamino)-phenyl]-carbamic acid ethyl ester] as the molecule, how does the ED50 at 30 min [6] read?
Answer: The ED50 at 30 min was 4.3 mg/kg.

From patent publication US20090118285A1, “USE OF KCNQ-OPENERS FOR TREATING OR REDUCING THE SYMPTOMS OF SCHIZOPHRENIA” (H. Lundbeck A/S, priority 2006, published 2009)
